Assay results: patent publication US7781591B2, “Substituted 3-cyanopyridines as protein kinase inhibitors” (Wyeth LLC, priority 2006, dated 2010)

Experiments:
Format in all cases: biochemical
[1] = target: T1, purified recombinant active kinase domain of full length PKC theta (amino acids 362-706) (Homo sapiens, UniProt Q04759); experiment: Radioactive kinase assay for inhibition of the active kinase domain (KD) of PKCθ; conditions: active kinase domain of PKC theta (amino acids 362-706), average value, read-out: IC50 PKCθKD
T1 construct: active kinase domain of full length PKC theta (amino acids 362-706)
Protocol: A Radioactive Kinase Assay for Inhibition of the Active Kinase Domain (KD) of PKCθ
(§1) This assay is based on the phosphorylation of a biotinylated substrate by a kinase utilizing radiolabeled ATP (ATP γ P33). The substrate was a biotinylated peptide with a sequence of biotin-[…]-C(O)NH2. The enzyme was purified recombinant active kinase domain of full length PKC theta (amino acids 362-706). The assay buffer was composed of 100 mM Hepes, pH7.5, 2 mM MgCl2, 20 mM β-glycerophosphate and 0.008% TritonX 100. A reaction mixture of ATP, ATP γ P33 (PerkinElmer), DTT, and the enzyme was prepared in the assay buffer and added to a 96-well polypropylene plate. The compound (diluted in DMSO in a separate 96-well polypropylene plate) was added to the reaction mixture and incubated at room temperature. Following the incubation, the peptide substrate was added to the reaction mixture to initiate the enzymatic reaction. The reaction was terminated with the addition of a stop solution (100 mM EDTA, 0.2% TritonX100, and 20 mM NaHPO4) and transferred from the assay plate to a washed streptavidin-coated 96-well scintiplate (PerkinElmer). The scintiplate was incubated at room temperature, washed in PBS with 0.1% TritonX 100, and counted in the 1450 Microbeta Trilux (Wallac, Version 2.60). Counts were recorded for each well as corrected counts per minute (CCPM). The counts were considered corrected because they were adjusted according to a P33 normalization protocol, which corrects for efficiency and background differences between the instrument detectors (software version 4.40.01).

[2] = target: T2, purified recombinant full length PKC theta (Panvera, P2996) (Homo sapiens, UniProt Q04759); experiment: Radioactive kinase assay for inhibition of full length (FL) PKCθ; conditions: average value
T2 construct: purified recombinant full length PKC theta (Panvera, P2996); purchased Panvera P2996
Protocol: as §1, with “The enzyme was purified recombinant active kinase domain of full length PKC theta (amino acids 362-706).” left out, “The scintiplate was incubated at room temperature, washed in PBS with 0.1% TritonX 100, and counted in the 1450 Microbeta Trilux (Wallac, Version 2.60).” left out
A Radioactive Kinase Assay for Inhibition of Full Length (FL) PKCθ Inhibitors
This assay differs from what was described above in that the enzyme used was purified recombinant full length PKC theta (Panvera, P2996).

[3] = target: T3, human PKCθ full length enzyme (Homo sapiens, UniProt Q04759); experiment: PKCθ IMAP assay (fluorescence polarization); conditions: human PKCθ full length enzyme, IMAP; average value; read-out: IC50 PKCθ IMAP
T3 construct: human PKCθ full length enzyme (Panvera Cat# P2996); purchased Panvera P2996
T3 sequence (Q04759 whole entry): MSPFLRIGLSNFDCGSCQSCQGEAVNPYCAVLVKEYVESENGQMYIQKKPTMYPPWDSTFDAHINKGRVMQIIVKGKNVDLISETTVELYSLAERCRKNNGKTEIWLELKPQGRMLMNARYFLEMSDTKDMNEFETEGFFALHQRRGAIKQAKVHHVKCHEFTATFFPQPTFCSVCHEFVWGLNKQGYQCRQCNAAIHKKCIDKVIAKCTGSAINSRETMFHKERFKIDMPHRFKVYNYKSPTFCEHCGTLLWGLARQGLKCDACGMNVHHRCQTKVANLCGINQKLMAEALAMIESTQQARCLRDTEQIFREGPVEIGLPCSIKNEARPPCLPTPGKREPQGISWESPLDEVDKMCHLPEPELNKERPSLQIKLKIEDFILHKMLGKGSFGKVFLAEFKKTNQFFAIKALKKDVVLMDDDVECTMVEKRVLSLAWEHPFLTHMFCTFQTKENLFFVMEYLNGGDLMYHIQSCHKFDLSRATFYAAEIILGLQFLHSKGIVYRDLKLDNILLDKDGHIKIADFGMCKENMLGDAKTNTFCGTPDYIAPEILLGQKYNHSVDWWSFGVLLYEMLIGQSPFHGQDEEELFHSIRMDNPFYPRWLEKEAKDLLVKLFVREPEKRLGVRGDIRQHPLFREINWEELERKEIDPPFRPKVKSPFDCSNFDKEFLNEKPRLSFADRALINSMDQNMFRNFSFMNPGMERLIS

T2 sequence (Q04759 whole entry): as above
T1 sequence (Q04759 362-706): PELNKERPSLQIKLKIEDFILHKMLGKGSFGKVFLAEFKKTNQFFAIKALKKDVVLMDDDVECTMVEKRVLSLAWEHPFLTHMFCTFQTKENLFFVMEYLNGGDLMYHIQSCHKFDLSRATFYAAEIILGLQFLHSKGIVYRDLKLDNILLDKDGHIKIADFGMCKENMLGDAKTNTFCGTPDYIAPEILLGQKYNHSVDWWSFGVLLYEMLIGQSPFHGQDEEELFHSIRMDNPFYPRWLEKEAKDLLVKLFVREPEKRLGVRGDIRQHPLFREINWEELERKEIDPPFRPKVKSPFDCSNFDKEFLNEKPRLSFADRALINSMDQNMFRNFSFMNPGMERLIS

Row | IC50 [1] [µM] | IC50 [2] [µM] | IC50 [3] [µM] | Compound
1 | 0.14 | 0.083 | 0.14 | COc1ccc(-c2cncc(C#N)c2Nc2ccc3[nH]ccc3c2)cc1OC [Compound 101, 5-(3,4-dimethoxyphenyl)-4-(1H-indol-5-ylamino)nicotinonitrile]
2 | 0.96 |  |  | COc1ccc(-c2cncc(C#N)c2Nc2cccc3nsnc23)cc1OC [Compound 102, 4-(2,1,3-benzothiadiazol-4-ylamino)-5-(3,4-dimethoxyphenyl)nicotinonitrile]
3 | 5.68 |  |  | COc1ccc(-c2cncc(C#N)c2Nc2cccc3cnccc23)cc1OC [Compound 103, 5-(3,4-dimethoxyphenyl)-4-(isoquinolin-5-ylamino)nicotinonitrile]
4 | 6.56 |  |  | COc1ccc(-c2cncc(C#N)c2Nc2cccc3ncccc23)cc1OC [Compound 104, 5-(3,4-dimethoxyphenyl)-4-(quinolin-5-ylamino)nicotinonitrile]
5 | 2.66 |  |  | COc1ccc(-c2cncc(C#N)c2Nc2cccc3c2CCCC3)cc1OC [Compound 105, 5-(3,4-dimethoxyphenyl)-4-(5,6,7,8-tetrahydronaphthalen-1-ylamino)nicotinonitrile]
6 | 11.4 |  |  | COc1ccc(-c2cncc(C#N)c2Nc2ccc3c(c2)OCCO3)cc1OC [Compound 106, 4-(2,3-dihydro-1,4-benzodioxin-6-ylamino)-5-(3,4-dimethoxyphenyl)nicotinonitrile]
7 | 0.15 | 0.04 | 0.013 | COc1ccc(-c2cncc(C#N)c2Nc2cccc3[nH]ccc23)cc1OC [Compound 109, 5-(3,4-dimethoxyphenyl)-4-(1H-indol-4-ylamino)nicotinonitrile]

Row | Compound | IC50 [1] [µM] | IC50 [2] [µM] | IC50 [3] [µM]
8 | COc1ccc(-c2cncc(C#N)c2Nc2ccc3cc[nH]c3c2)cc1OC [Compound 108, 5-(3,4-dimethoxyphenyl)-4-(1H-indol-6-ylamino)nicotinonitrile] | 1.01 | 2.25 | 0.45
